Measurements from PubChem BioAssay AID624344 (Sanford-Burnham Center for Chemical Genomics, 2012).
Activity calls are given as the source filed them. No rule for the calls is given here.

Key:
Cytotoxicity = test: NFkB reporter suppression in cystic fibrosis bronchial cells – cell-based, uHTS hits, panel, cytotoxicity readout, dose response (AID 624344); settings: CF bronchial epithelial cells, mean of runs
[1] = as above; settings: CF bronchial epithelial cells, PAF-induced NFkB reporter inhibition; with PAF, mean of runs

Compound | IC50 (Cytotoxicity) | IC50 [1]
Cc1ccc(NC(=O)CSc2ncnc3ccccc23)cc1S(=O)(=O)N1CCOCC1 | 34.6 µM | 4.14 µM
C/C=C/COC(=O)c1[nH]c2c(c1C)C(=O)CC(c1ccco1)C2 (stereo not given) | 52.8 µM (inactive) | inactive
CC1C(c2ccccc2)OCCN1C(=S)Nc1ccc(S(=O)(=O)N2CCCCC2)cc1 (stereo not given) | 56.5 µM (inactive) | 9.52 µM
CC(C)C[C@@H](CN1CCCC1CN1C(=S)NC[C@@H]1Cc1ccc(O)cc1)N1C[C@H](Cc2ccc(O)cc2)N(CC2CCCCC2)C1=S (stereo not given in full) | 19.8 µM | 9.1 µM
COc1cc(/C=N/NC(=O)Nc2cccc3nsnc23)cc(OC)c1OC | 14.7 µM | 2.53 µM
N#CC(C#N)c1ccnc2ccccc12 | 28.3 µM | 3.17 µM
CCC(=O)Nc1nc(C)c(-c2csc(Nc3cccc(O)c3)n2)s1 | > 79 µM (inactive) | 3.06 µM
COc1ccc(-c2oc3ccc(-c4ccc(OC)nc4)cc3c2C#CC2(O)CCCCC2)cc1 | 14.4 µM | 6.05 µM
CC(C)(C)OC(=O)NCC(=O)Oc1cc2oc(=O)cc(-c3ccccc3)c2cc1Cl | 15.3 µM | 1.2 µM
COc1ccc(C(=O)N[C@H](C(=O)Nc2nc3ccccc3[nH]2)C(C)C)cc1 | > 79 µM (inactive) | 14.6 µM
CC(=O)c1ccc(Nc2ncnc3ccc(Br)cc23)cc1 | 37 µM | 2.18 µM
C=CCSc1nc2ccccc2n1C(=O)/C=C/c1ccc(OC)c(OC)c1 | 62 µM (inactive) | 3.46 µM
COc1ccc(CNc2nn3c(-c4cccc(C(=O)N(C)C)c4)cnc3s2)cc1 | 33.6 µM | 2.46 µM
COc1ccc2[nH]c(=O)c3c(c2c1)OC(C)(C)C=C3 | 19.8 µM | 1.67 µM
CCc1c(C)nc2ccc(Br)cc2c1SCCC#N | 24.8 µM | 3.12 µM
C=Cc1ccc(CC2(C)C(=O)Nc3ccc(-c4cccnc4)cc32)cc1 (stereo not given) | 41.9 µM | 3.36 µM
CCN(CC)CCN(C(=O)CCS(=O)(=O)c1ccccc1)c1nc2c(C)cc(C)cc2s1 | 8 µM | 5.98 µM
O=C(Nc1ccc([N+](=O)[O-])cc1)Nc1ccc(Cl)cc1F | 2.19 µM | 2.92 µM
Cc1nc2c(O)c3c(c(O)c2nc1C)C1C=CC3CC1 | 7.03 µM | 5.67 µM
CCOC(=O)C1=C(CC)Nc2ccccc2N=C1NC(=O)c1oc2ccccc2c1C | 6.1 µM | 4.43 µM

Compound | IC50 (Cytotoxicity) | IC50 [1]
COc1ccc(CN(CCC(c2ccc(F)cc2)C2CCOC(C)(C)C2)C(=O)c2ccco2)cc1 (stereo not given) | 8.96 µM | 6.57 µM
Cc1cccc(Nc2ncnc3ccc(Br)cc23)c1 | 13.1 µM | 3.93 µM
CS(=O)(=O)Nc1cccc(-c2cc(NC=O)c3ncc(-c4ccc(F)cc4)n3c2)c1 | 8.66 µM | 2.4 µM
CCNC(=O)C1(C)CCCN(Cc2ccc(-c3ccccc3)o2)C1 (stereo not given) | > 79 µM (inactive) | 9 µM
COc1cc2c(c(OC)c1OC)-c1ccc(SC)c(=O)cc1C(NC(=O)C(F)(F)F)CC2 (stereo not given) | > 79 µM (inactive) | inactive
Cc1ccc(N=Cc2cc3c(cc2O)OC(N)=C(C#N)C3c2ccccc2)cc1 (stereo not given) | 53.6 µM (inactive) | 2.07 µM
COc1ccc(-c2cn[nH]c2-c2ccc(OCc3ccc([N+](=O)[O-])cc3)cc2O)cc1 | 31.8 µM | 4.72 µM
COc1cc(-c2cnc3c(NC=O)cc(-c4ccc(C)cc4)cn23)cc(OC)c1OC | 22 µM | > 79 µM (inactive)
COc1cc(O)c(CC=C(C)C)c(O)c1C(=O)CCc1ccc(O)cc1 | 41.5 µM | 5 µM
COc1ccccc1[C@]1(C)ON(c2ccccc2C(F)(F)F)C1=O | 66.9 µM (inactive) | 4.14 µM
COc1ccc2cc3c(N)nn(C(=O)c4ccc(F)cc4)c3nc2c1 | 36.6 µM | 1.29 µM
COc1ccc(COc2cc(-c3cccc(OC)c3)nc3ccc(NC(=O)c4cccnc4)cc23)cc1 | 11.5 µM | 4.27 µM
Cn1c(Oc2ccc(Cl)cc2)c(C=O)c2ccccc21 | 13.5 µM | 3.96 µM
CCCCN(c1ccccc1)c1ncnc(N)c1[N+](=O)[O-] | > 79 µM (inactive) | 1.08 µM
O=C1NC(c2cccc3ccccc23)Nc2ccc(Cl)cc21 (stereo not given) | > 79 µM (inactive) | 8.66 µM
O=C(Nc1cccc(S(=O)(=O)N2CCCCC2)c1)Nc1ccc(Cl)cc1Cl | 10.6 µM | 8.83 µM
C=C1C(=O)[C@]23C[C@H]1CCC2[C@@]1(C)C(C[C@@H]3O)[C@](C)(C(=O)O)CC[C@@H]1O (stereo not given in full) | 13.1 µM | 1.98 µM
COc1ccc(/C=N/NC(=O)c2[nH]c3ccc(Br)cc3c2-c2ccccc2)cc1 | 27 µM | 9.3 µM
COC(=O)c1ccc(-c2ccc(OC)c([C@H]3[C@H]4C=CC[C@@H](C)[C@@H]4C(=O)N3Cc3ccccc3)c2)cc1 | 29.8 µM | 2.4 µM
Cc1ccc2c(c1)C(=O)C(=O)N2Cc1ccc(C(F)(F)F)cc1 | > 79 µM (inactive) | inactive
